The experiment can be described thus: Modulus of elasticity of demineralized dentin, 3-point bend method (Example 3). On the set-up: species or system human. As to conditions: for modulus of elasticity, pooled data: pooled over all times (baseline to 4 h). An excerpt: Twelve sound extracted human molars were used. The teeth were thawed, cleaned of adhering soft tissues, and the occlusal surfaces were ground flat with #320 grit silicon carbide abrasive paper under running water to remove part of the enamel (Buehler, Lake Bluff, Ill.). Flattening of the occlusal surface by cusp removal enables more accurate sectioning of samples. The root portion was sectioned 1 mm below the CEJ and discarded. Teeth were sectioned into 0.5±0.1 mm thick beams (n=5 beams per tooth) in the mesio-buccal direction with a slow speed diamond wafering blade (Buehler-Series 15LC Diamond) under constant water irrigation (FIG. 1A). The sections were further trimmed using a cylindrical diamond bur (#557D, Brasseler, Savannah, Ga.) in a high speed handpiece, to a final rectangular dimension of 0.5 mm thickness×1.7 mm width×7.0 mm length. A dimple was made at one end of the surfaces to allow for repeated measurements to be performed on the same surface (FIG. 1A).
Specimens were immersed in 10% phosphoric acid solution (LabChem Inc, Pittsburgh, Pa.) for a period of 5 hours and thoroughly rinsed with distilled water for 10 minutes. X-rays were taken of the specimens to verify complete tissue demineralization. Demineralized specimens were randomly divided into the following groups according to dentin treatment (FIG. 1B): 2.5% glutaraldehyde (Fisher Biotech, Fair Lawn, N.J.) in PBS (pH: 7.4); 5% glutaraldehyde in PBS (pH: 7.4); 25% glutaraldehyde in PBS (pH: 7.4); 0.65% grape seed extract (Mega-Natural—Polyphenolics Ind., Madera, Calif.) in PBS (pH: 7.4); and 6.5% grape seed extract in PBS solution (pH: 7.4). Specimens were immersed in water for baseline measurements and then in their respective solutions for 10 min, 30 min, 1 hour, 2 hour and 4 hours of cumulative exposure (FIG. 1C).
The 3-point bend method was selected for evaluation of the modulus of elasticity. The advantages of this method are that it requires no gripping of these small specimens and that it is non-destructive and therefore permits repeated measurements to be performed (FIG. 1C). An aluminum alloy fixture with a 5.0 mm span between supports was glued to the bottom of a glass Petri dish. Specimens were tested in compression while immersed in liquid using a Vitrodyne testing machine (Model V-1000, Chatillon, Greensboro, N.C.) with a 50 grams load cell at crosshead speed of 0.5 mm/min. Load-displacement curves were converted to stress-strain curves and the apparent modulus of elasticity calculated at 3% strain. Displacement (D) during compression was calculated at a maximum strain of 3% using the following formula (Nielsen L E. Mechanical properties of polymers and composites. Vol. 1, New York: Marcel Dekker Inc., 1974, p. 45.):
Where ε is strain, L is support span and T is thickness of the specimen.
Then the modulus of elasticity (É) of the specimens was calculated using the following formula (Nielsen, 1974): […]
Where P is the maximum load, L is the support span, D is the displacement, b width of the specimen and T is the thickness of the specimen.
Baseline measurements were obtained with specimens immersed in distilled water. All experimental periods were evaluated with the samples immersed in their respective cross-linking agents. A total of 10-12 specimens were evaluated per group. The data were collected and statistically analyzed using a General Linear Model SPSS program for ANOVA repeated measurements at a 95% confidence interval.

Regarding `O=CCCCC=O` [GD, glutaraldehyde], the modulus of elasticity was 4.82 MPa (2.5% GD group, Baseline (in distilled water, before exposure)); 20.45 MPa (2.5% GD in PBS pH 7.4, 10 min cumulative exposure); 30.22 MPa (2.5% GD in PBS pH 7.4, 30 min cumulative exposure); 32.10 MPa (2.5% GD in PBS pH 7.4, 1 h cumulative exposure); 34.44 MPa (2.5% GD in PBS pH 7.4, 2 h cumulative exposure); 34.86 MPa (2.5% GD in PBS pH 7.4, 4 h cumulative exposure). Besides, the modulus of elasticity by setting is: (5% GD group, Baseline (in distilled water, before exposure)) 5.97 MPa; (5% GD in PBS pH 7.4, 10 min cumulative exposure) 18.37 MPa; (5% GD in PBS pH 7.4, 30 min cumulative exposure) 27.25 MPa; (5% GD in PBS pH 7.4, 1 h cumulative exposure) 29.77 MPa; (5% GD in PBS pH 7.4, 2 h cumulative exposure) 33.08 MPa; (5% GD in PBS pH 7.4, 4 h cumulative exposure) 38.14 MPa. Further, the modulus of elasticity is recorded as 5.32 MPa (25% GD group, Baseline (in distilled water, before exposure)); 32.26 MPa (25% GD in PBS pH 7.4, 10 min cumulative exposure); 37.83 MPa (25% GD in PBS pH 7.4, 30 min cumulative exposure); 41.31 MPa (25% GD in PBS pH 7.4, 1 h cumulative exposure); 41.21 MPa (25% GD in PBS pH 7.4, 2 h cumulative exposure); 42.80 MPa (25% GD in PBS pH 7.4, 4 h cumulative exposure). The “modulus of elasticity, pooled data” value came to 26.15 A MPa (2.5% GD), 25.43 A MPa (5% GD) and 33.45 B MPa (25% GD).

(Values after patent US20090123581A1, “COLLAGEN CROSS-LINKING AGENTS ON DENTAL RESTORATIVE TREATMENT AND PREVENTIVE DENTISTRY” (THE BOARD OF TRUSTEES OF THE UNIVERSITY OF ILLINOIS, priority 2006, published 2009).)
